Read-outs that look alike come from different tables or passages of the source.

The test relates to NHACs. In words: calcium flux assay. It counts as cell-based, human. The conditions noted are these: for Emax: read-out: (A) % Efficacy. In short, it runs like this:
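Normal human articular chondrocytes plated at 2000 cells/well and loaded 24 h later with Calcium 5 dye in HBSS/HEPES with 5 mM probenecid for 1 h at room temperature. Test compound added at indicated dose; fluorescence (ex 470–495/em 515–575 nm) recorded on FLIPR before and after addition.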

With `COc1ccc(NC(=O)[C@H]2[C@@H]3O[C@@H]([C@H]4C[C@H]43)[C@@H]2c2ccnc(F)c2F)cn1` [Example 127, (1S,2S,4R,5R,6R,7S)-7-(2,3-difluoropyridin-4-yl)-N-(6-methoxypyridin-3-yl)-8-oxatricyclo[3.2.1.0^2,4]octane-6-carboxamide], for the setting “Homo sapiens”, the EC50 is > 50 µM and the Emax came to 62%.
On to `Cc1cc([C@H]2[C@H]3O[C@H](C[C@@H]3O)[C@H]2C(=O)Nc2cnc(Cl)c(Cl)c2)ccn1` [Example 6, (1R,2S,3S,4R,5S)-N-(5,-6-dichloropyridin-3-yl)-5-hydroxy-3-(2-methylpyridin-4-yl)-7-oxabicyclo[2.2.1]heptane-2-carboxamide], for which the “(A) % Efficacy” value worked out at 17% and the half-maximal effective concentration (EC50) was > 50 µM.
`Cc1cc([C@H]2[C@H]3O[C@H](C[C@H]3F)[C@@H]2C(=O)Nc2ccc(OC(F)(F)F)c(F)c2)ccn1` [Example 100, (1R,2R,3S,4R,5R)-5-fluoro-N-(3-fluoro-4-(trifluoromethoxy)phenyl)-3-(2-methylpyridin-4-yl)-7-oxabicyclo[2.2.1]heptane-2-carboxamide]: where the note is “Homo sapiens”, the EC50 was determined as 18 µM and the Emax was determined as 310%.
On the same counts, the results for `O=C(Nc1ccc(Cl)c(Cl)c1)[C@@H]1[C@@H]2O[C@@H]([C@H]3C[C@H]32)[C@@H]1c1cnc(N2CCOCC2)nc1` [Example 40, (1S,2S,4R,5R,6S,7S)—N-(3,4-dichlorophenyl)-7-(2-morpholinopyrimidin-5-yl)-8-oxatricyclo[3.2.1.0^2,4]octane-6-carboxamide] are > 50 µM and 37%.
On the same counts, the results for `Cc1cc([C@H]2[C@H]3O[C@H](C[C@H]3F)[C@@H]2C(=O)Nc2ncc(C)s2)ccn1` [Example 102, (1R,2R,3S,4R,5R)-5-fluoro-3-(2-methylpyridin-4-yl)-N-(5-methylthiazol-2-yl)-7-oxabicyclo[2.2.1]heptane-2-carboxamide] are 2.1 µM and 84%.
On the same counts, the results for `O=C(Nc1cnc(Cl)c(Cl)c1)[C@@H]1[C@@H]2O[C@@H]([C@H]3C[C@H]32)[C@@H]1c1ccncc1` (racemic) [Example 43, rac-(1S,2S,4R,5R,6S,7S)—N-(5,6-dichloropyridin-3-yl)-7-(pyridin-4-yl)-8-oxatricyclo[3.2.1.0^2,4]octane-6-carboxamide] are > 50 µM and 168%.
Regarding `O=C(Nc1ccc(Cl)c(Cl)c1)[C@@H]1[C@@H](c2ccncc2)[C@H]2O[C@@H]1C[C@@H]2O` [Example 150, (1R,2R,3S,4R,5S)—N-(3,4-dichlorophenyl)-5-hydroxy-3-(pyridin-4-yl)-7-oxabicyclo[2.2.1]heptane-2-carboxamide], where the note is “Homo sapiens”, the EC50 was > 50 µM and the Emax turned out to be 5%.
For `O=C(Nc1ccc(Cl)c(Cl)c1)[C@@H]1[C@@H](c2cncnc2)[C@H]2O[C@@H]1C[C@@H]2O` [Example 141, (1R,2R,3S,4R,5S)—N-(3,4-dichlorophenyl)-5-hydroxy-3-(pyrimidin-5-yl)-7-oxabicyclo[2.2.1]heptane-2-carboxamide], for the setting “Homo sapiens”, the EC50 came out at 13 µM and the Emax was 43%.
Take `COc1cc([C@H]2[C@H]3O[C@H](C[C@@H]3O)[C@@H]2C(=O)Nc2ccc(Cl)c(Cl)c2)ccn1` (racemic) [Example 139, rac-(1R,2R,3S,4R,5S)—N-(3,4-dichlorophenyl)-5-hydroxy-3-(2-methoxypyridin-4-yl)-7-oxabicyclo[2.2.1]heptane-2-carboxamide]: under “Homo sapiens”, the EC50 amounted to 21 µM and the Emax is 223%.
In the case of `Cc1cc([C@H]2[C@H]3O[C@H](C[C@@H]3O)[C@@H]2C(=O)Nc2cccc(C(F)(F)F)c2)ccn1` [Example 85, (1R,2R,3S,4R,5S)-5-hydroxy-3-(2-methylpyridin-4-yl)-N-(3-(trifluoromethyl)phenyl)-7-oxabicyclo[2.2.1]heptane-2-carboxamide], where the note is “Homo sapiens”, the EC50 is > 50 µM and the Emax worked out at 56%.
As to `Cc1cc([C@H]2[C@H]3O[C@H](C[C@H]3N[C@H]3C[C@H](O)C3)[C@@H]2C(=O)Nc2ccc(Cl)c(Cl)c2)ccn1` [Example 170, (1R,2R,3S,4R,5R)—N-(3,4-dichlorophenyl)-5-(((1r,3R)-3-hydroxycyclobutyl)amino)-3-(2-methylpyridin-4-yl)-7-oxabicyclo[2.2.1]heptane-2-carboxamide], under “Homo sapiens”, the EC50 is > 50 µM and the Emax was 37%.
On the same counts, the results for `O=C(Nc1ccc(Cl)c(Cl)c1)[C@H]1[C@@H](c2ccnc(F)c2)[C@H]2O[C@@H]1C[C@@H]2F` [Example 22, (1R,2S,3S,4R,5S)-N-(3,4-dichlorophenyl)-5-fluoro-3-(2-fluoropyridin-4-yl)-7-oxabicyclo[2.2.1]heptane-2-carboxamide] are 4.2 µM and 128%.
With `O=C(Nc1ccc(Cl)c(Cl)c1)[C@@H]1[C@@H]2O[C@@H]([C@H]3C[C@H]32)[C@@H]1c1ccnc(F)c1` [Example 25, (1S,2S,4R,5R,6S,7S)-N-(3,4-dichlorophenyl)-7-(2-fluoropyridin-4-yl)-8-oxatricyclo[3.2.1.0^2,4]octane-6-carboxamide], for the setting “Homo sapiens”, the EC50 was 17 µM and the Emax was 52%.
For `Cc1nccc([C@H]2[C@H]3O[C@H](C[C@@H]3O)[C@@H]2C(=O)Nc2ccc(Cl)c(Cl)c2)n1` [Example 82, (1R,2R,3S,4R,5S)—N-(3,4-dichlorophenyl)-5-hydroxy-3-(2-methylpyrimidin-4-yl)-7-oxabicyclo[2.2.1]heptane-2-carboxamide] the same measures were > 50 µM and 74%.
On the same counts, the results for `O=C(Nc1ccc(Cl)c(Cl)c1)[C@@H]1[C@@H](c2ccnc(F)c2)[C@H]2O[C@@H]1C[C@@H]2F` [Example 111, (1R,2R,3S,4R,5S)—N-(3,4-dichlorophenyl)-5-fluoro-3-(2-fluoropyridin-4-yl)-7-oxabicyclo[2.2.1]heptane-2-carboxamide] are 28 µM and 87%.
On the same counts, the results for `Nc1ncc([C@H]2[C@H]3O[C@H](C[C@@H]3F)[C@H]2C(=O)Nc2ccc(Cl)c(Cl)c2)cn1` [Example 20, (1R,2S,3S,4R,5S)-3-(2-aminopyrimidin-5-yl)-N-(3,4-dichlorophenyl)-5-fluoro-7-oxabicyclo[2.2.1]heptane-2-carboxamide] are > 50 µM and 5%.
As to `Cc1cc([C@H]2[C@H]3O[C@H](C[C@@H]3O)[C@@H]2C(=O)Nc2ccc(-c3ccccc3F)c(Cl)c2)ccn1` [Example 78, (1R,2R,3S,4R,5S)—N-(2-chloro-2′-fluoro-[1,1′-biphenyl]-4-yl)-5-hydroxy-3-(2-methylpyridin-4-yl)-7-oxabicyclo[2.2.1]heptane-2-carboxamide], where the note is “Homo sapiens”, the EC50 was > 50 µM and the Emax amounted to 70%.
For “(1S,2S,4R,5R,6S,7S)-N-(3,4-dichlorophenyl)-7-(2-methylpyridin-4-yl)-8-oxatricyclo[3.2.1.0^2,4]octane-6-carboxamide [Example 23]”, the “(A) % Efficacy” value came out at 54% and the EC50 was > 50 µM.
Turning to `O=C(Nc1ccc(Cl)c(Cl)c1)[C@@H]1[C@@H](c2cnc(F)nc2)[C@H]2O[C@@H]1C[C@@H]2O` [Example 151, (1R,2R,3S,4R,5S)—N-(3,4-dichlorophenyl)-3-(2-fluoropyrimidin-5-yl)-5-hydroxy-7-oxabicyclo[2.2.1]heptane-2-carboxamide], under “Homo sapiens”, the EC50 is > 50 µM and the Emax came out at 0%.
On the same counts, the results for `Nc1ncc([C@H]2[C@H]3O[C@H](C[C@@H]3O)[C@H]2C(=O)Nc2ccc(Cl)c(Cl)c2)cn1` [Example 60, (1R,2S,3S,4R,5S)-3-(2-aminopyrimidin-5-yl)-N-(3,4-dichlorophenyl)-5-hydroxy-7-oxabicyclo[2.2.1]heptane-2-carboxamide] are > 50 µM and 2%.
On the same counts, the results for `Nc1ncc([C@H]2[C@H]3O[C@H](C[C@@H]3F)[C@@H]2C(=O)Nc2ccc(Cl)c(Cl)c2)cn1` [Example 113, (1R,2R,3S,4R,5S)-3-(2-aminopyrimidin-5-yl)-N-(3,4-dichlorophenyl)-5-fluoro-7-oxabicyclo[2.2.1]heptane-2-carboxamide] are 30 µM and 103%.
As to `O=C(Nc1ccc(Cl)c(Cl)c1)[C@H]1[C@@H]2O[C@@H]([C@@H](O)[C@H]2O)[C@@H]1c1ccncc1` [Example 160, (1S,2R,3S,4R,5S,6R)—N-(3,4-dichlorophenyl)-5,6-dihydroxy-3-(pyridin-4-yl)-7-oxabicyclo[2.2.1]heptane-2-carboxamide], under “Homo sapiens”, the EC50 is > 50 µM and the Emax is 32%.
For `O=C(Nc1cccc(C(F)(F)F)c1)[C@H]1[C@@H]2O[C@@H]([C@@H](O)[C@H]2O)[C@@H]1c1ccncc1` [Example 159, (1S,2R,3S,4R,5S,6R)-5,6-dihydroxy-3-(pyridin-4-yl)-N-(3-(trifluoromethyl)phenyl)-7-oxabicyclo[2.2.1]heptane-2-carboxamide] the same measures were > 50 µM and 11%.
In the case of `Cc1cc([C@H]2[C@H]3O[C@H](C[C@@H]3O)[C@@H]2C(=O)Nc2cnc(C)c(Cl)c2)ccn1` [Example 81, (1R,2R,3S,4R,5S)—N-(5-chloro-6-methylpyridin-3-yl)-5-hydroxy-3-(2-methylpyridin-4-yl)-7-oxabicyclo[2.2.1]heptane-2-carboxamide], where the note is “Homo sapiens”, the EC50 worked out at 2.7 µM and the Emax is 34%.
As to `O=C(Nc1ccc(Cl)c(Cl)c1)[C@@H]1[C@@H](c2ccnc(F)c2F)[C@H]2O[C@@H]1C[C@@H]2O` [Example 146, (1R,2R,3S,4R,5S)—N-(3,4-dichlorophenyl)-3-(2,3-difluoropyridin-4-yl)-5-hydroxy-7-oxabicyclo[2.2.1]heptane-2-carboxamide], for the setting “Homo sapiens”, the EC50 was found to be 20 µM and the Emax came out at 150%.
As to `O=C(Nc1ccc(Cl)c(Cl)c1)[C@H]1[C@@H]2O[C@@H]([C@H]3C[C@H]32)[C@@H]1c1cnc(F)nc1` [Example 129, (1S,2S,4R,5R,6R,7S)—N-(3,4-dichlorophenyl)-7-(2-fluoropyrimidin-5-yl)-8-oxatricyclo[3.2.1.0^2,4]octane-6-carboxamide], for the setting “Homo sapiens”, the 50% effective concentration (EC50) is 10 µM and the Emax came to 146%.

Values taken from US12209096B2, “Compounds and compositions for inducing chondrogenesis” (NOVARTIS AG, priority 2017, dated 2025).
